Data reported in paper PMC6429262, “Design and Synthesis of Novel Anti-Proliferative Emodin Derivatives and Studies on their Cell Cycle Arrest, Apoptosis Pathway and Migration” (Molecules, 2019).

Experiments:
MCF-7 cells = assay: CellTiter-Glo Luminescent Cell Viability Assay, MCF-7; assay type: cell-based, human; settings: for IC50: Homo sapiens, MCF7, 48 h, MCF-7 cells, 48 h, mean of three independent experiments
Description: (§1) The in vitro anti-proliferative activities of all the novel synthesized compounds were evaluated against HepG2 cells and MCF-7 cells by CellTiter-Glo® Luminescent Cell Viability Assay, using paclitaxel (a clinically used drug) as a positive control. Emodin (1) and compound 2 were also included for comparison.
(§2) HepG2 cells and MCF-7 cells were purchased from American Type Culture Collection (ATCC, Manassas, VA, USA). Cells were cultured in T75 flask (430641, Corning, New York, NY, USA), supplemented with high-glucose DMEM medium (Dulbecco’s modified Eagle’s medium, 11965-092, Gibco, New York, NY, USA) containing 10% Fetal bovine serum (FBS) and 1% penicillin (100 units/mL)-streptomycin (100 µg/mL) in a humidified incubator at 37 °C under 5% CO2 and 95% relative humidity (RH) atmosphere. The cells were harvested for metabolomics experiments using cell scrapers.
(§3) HepG2 cells and MCF-7 cells in 40 µL DMEM supplemented with 10% FBS were seeded at a density of 500 cells/well in 384-well cell culture plate (3570, Corning), respectively. After 24 h, the medium was substituted with fresh medium containing various sample solutions in DMSO (0.5%, v/v) at a dose range of 0.14–100 µM with 3-fold serial dilutions, and cells were cultured for another 48 h. Cells were cultured in medium without samples but 0.5% DMSO served as a control. All measurements were determined in triplicate for each treatment. After the sample treatment for 48 h, 20 µL CellTiter-Glo (G7573, Promega, Fitchburg, WI, USA) was added to each well containing cells and the contents were mixed for 2 min on an orbital shaker to induce cell lysis. The plates were then incubated at room temperature for 20 min to stabilize the luminescent signal. The luminescence was recorded on an Envision 2014 (Perkin Elmer, Waltham, MA, UAS). The IC50 values represented the samples’ concentrations required to inhibit 50% of cell proliferation and were calculated from a calibration curve by linear regression using GraphPad Prism 7.0 software (GraphPad Software, San Diego, CA, USA).

L02 cells = assay: Cytotoxic activity against human normal liver cells (L02); assay type: cell-based; settings: Homo sapiens, L02, human normal liver L02 cells
HepG2 cells = assay: CellTiter-Glo Luminescent Cell Viability Assay, HepG2; assay type: cell-based, human; settings: for IC50: Homo sapiens, HepG2, 48 h, HepG2 cells, 48 h, mean of three independent experiments
Description: as §1, §2, §3

With `Cc1cc(O)c2c(c1)C(=O)c1cc(OCCOC(=O)[C@H](C)N)cc(O)c1C2=O` [Compound 3c, (S)-1-(2-(4,5-Dihydroxy-7-methyl-9,10-dioxo-9,10-dihydroanthracen-2-yloxy)ethoxy)-1-oxopropan-2-aminium 2,2,2-trifluoroacetate] the IC50 (MCF-7 cells) was 10.2 ± 0.96 µM, the IC50 (L02 cells) was 37.3 ± 0.78 µM and the IC50 (HepG2 cells) was 9.52 ± 0.22 µM.
`Cc1cc(O)c2c(c1)C(=O)c1cc(OCCOC(=O)C3(N)CC3)cc(O)c1C2=O` [Compound 3k, 1-((2-(4,5-Dihydroxy-7-methyl-9,10-dioxo-9,10-dihydroanthracen-2-yloxy)ethoxy)carbonyl)cyclopropan-aminium 2,2,2-trifluoroacetate] gave an IC50 (MCF-7 cells) greater than 100 µM and an IC50 (HepG2 cells) of 53.2 ± 8.7 µM.
`Cc1cc(O)c2c(c1)C(=O)c1cc(OCCOC(=O)[C@@H](N)C(C)C)cc(O)c1C2=O` [Compound 3f, (S)-1-(2-(4,5-Dihydroxy-7-methyl-9,10-dioxo-9,10-dihydroanthracen-2-yloxy)ethoxy)-3-methyl-1-oxobutan-2-aminium 2,2,2-trifluoroacetate] gave an IC50 (MCF-7 cells) of 16 ± 0.51 µM and an IC50 (HepG2 cells) of 12.4 ± 0.35 µM.
With `CN[C@@H](C)C(=O)OCCOc1cc(O)c2c(c1)C(=O)c1cc(C)cc(O)c1C2=O.O=C(O)C(F)(F)F` [Compound 4b, (S)-1-(2-(4,5-Dihydroxy-7-methyl-9,10-dioxo-9,10-dihydroanthracen-2-yloxy)ethoxy)-N-methyl-1-oxo-propan-2-aminium 2,2,2-trifluoroacetate] the IC50 (MCF-7 cells) was 68.8 ± 2.25 µM, the “activity reduction compared to emodin (1)” value (MCF-7 cells; MCF-7 cell lines) was 6 fold and the IC50 (HepG2 cells) was 40 ± 2.85 µM.
`Cc1cc(O)c2c(c1)C(=O)c1cc(OCCOC(=O)C3(N)COC3)cc(O)c1C2=O` [Compound 3m, 3-((2-(4,5-Dihydroxy-7-methyl-9,10-dioxo-9,10-dihydroanthracen-2-yloxy)ethoxy)carbonyl)oxetan-3-aminium 2,2,2-trifluoroacetate] was tested, and the IC50 (MCF-7 cells) was greater than 100 µM and the IC50 (HepG2 cells) was greater than 100 µM.
For `Cc1cc(O)c2c(c1)C(=O)c1cc(O)cc(O)c1C2=O` [Emodin, 3-methyl-1,6,8-trihydroxyanthraquinone], the IC50 (MCF-7 cells) was 52.7 ± 2.22 µM, the “Selectivity Index MCF-7” value (MCF-7 cells; IC50 on normal cells (L02)/IC50 on cancer cells (MCF-7)) was 0.43 and the IC50 (L02 cells) was 22.52 ± 0.18 µM. The IC50 (HepG2 cells) was 43.9 ± 1.28 µM and the “Selectivity Index HepG2” value (HepG2 cells; IC50 on normal cells (L02)/IC50 on cancer cells (HepG2)) was 0.51.
`Cc1cc(O)c2c(c1)C(=O)c1cc(OCCOC(=O)[C@@H](N)CO)cc(O)c1C2=O` [Compound 3d, (S)-1-(2-(4,5-Dihydroxy-7-methyl-9,10-dioxo-9,10-dihydroanthracen-2-yloxy)ethoxy)-3-hydroxy-1-oxopropan-2-aminium 2,2,2-trifluoroacetate] showed an IC50 (MCF-7 cells) of 34 ± 1.98 µM and an IC50 (HepG2 cells) of 12 ± 1.19 µM.
Work on `Cc1cc(O)c2c(c1)C(=O)c1cc(OCCCCCOC(=O)[C@H](C)N)cc(O)c1C2=O` [Compound 7f, (S)-1-(5-(4,5-Dihydroxy-7-methyl-9,10-dioxo-9,10-dihydroanthracen-2-yloxy)pentyloxy)-1-oxopropan-2-aminium 2,2,2-trifluoroacetate] yielded an IC50 (MCF-7 cells) of 15.8 ± 1.45 µM, an IC50 (L02 cells) of 24.3 ± 0.68 µM and an IC50 (HepG2 cells) of 10.6 ± 0.97 µM.
For `Cc1cc(O)c2c(c1)C(=O)c1cc(OCCOC(=O)C(C)(C)N)cc(O)c1C2=O` [Compound 3j, 1-(2-(4,5-Dihydroxy-7-methyl-9,10-dioxo-9,10-dihydroanthracen-2-yloxy)ethoxy)-2-methyl-1-oxopropan-2-aminium 2,2,2-trifluoroacetate], the IC50 (MCF-7 cells) was 29.8 ± 1.78 µM and the IC50 (HepG2 cells) was 25.8 ± 5.28 µM.
With `Cc1cc(O)c2c(c1)C(=O)c1cc(OCCOC(=O)[C@H](N)Cc3ccc(O)cc3)cc(O)c1C2=O` [Compound 3y, (R)-1-(2-(4,5-Dihydroxy-7-methyl-9,10-dioxo-9,10-dihydroanthracen-2-yloxy)ethoxy)-3-(4-hydroxyphenyl)-1-oxopropan-2-aminium 2,2,2-trifluoroacetate] the IC50 (MCF-7 cells) was 38.3 ± 1.92 µM and the IC50 (HepG2 cells) was 20.3 ± 1.4 µM.
`Cc1cc(O)c2c(c1)C(=O)c1cc(OCCOC(=O)[C@H](N)c3ccc(F)cc3)cc(O)c1C2=O` [Compound 3u, (R)-2-(2-(4,5-Dihydroxy-7-methyl-9,10-dioxo-9,10-dihydroanthracen-2-yloxy)ethoxy)-1-(4-fluorophenyl)-2-oxoethanaminium 2,2,2-trifluoroacetate] showed an IC50 (MCF-7 cells) of 20.8 ± 0.32 µM and an IC50 (HepG2 cells) of 14.3 ± 1.04 µM.
`CN[C@H](C)C(=O)OCCOc1cc(O)c2c(c1)C(=O)c1cc(C)cc(O)c1C2=O` [Compound 4a, (R)-1-(2-(4,5-Dihydroxy-7-methyl-9,10-dioxo-9,10-dihydroanthracen-2-yloxy)ethoxy)-N-methyl-1-oxo-propan-2-aminium 2,2,2-trifluoroacetate] was tested, and the IC50 (MCF-7 cells) was 23.2 ± 0.33 µM and the IC50 (HepG2 cells) was 13.7 ± 0.89 µM.
`Cc1cc(O)c2c(c1)C(=O)c1cc(OCCOCCOCCOCCOC(=O)[C@H](C)N)cc(O)c1C2=O` [Compound 7l, (S)-1-(4,5-Dihydroxy-7-methyl-9,10-dioxo-9,10-dihydroanthracen-2-yloxy)-13-oxo-3,6,9,12-tetraoxa-pentadecan-14-aminium 2,2,2-trifluoroacetate] was tested, and the IC50 (MCF-7 cells) was 41.8 ± 2.24 µM and the IC50 (HepG2 cells) was 60.6 ± 4.26 µM.
For `Cc1cc(O)c2c(c1)C(=O)c1cc(OCCOC(=O)[C@@H](N)c3ccc(F)cc3)cc(O)c1C2=O` [Compound 3v, (S)-2-(2-(4,5-Dihydroxy-7-methyl-9,10-dioxo-9,10-dihydroanthracen-2-yloxy)ethoxy)-1-(4-fluorophenyl)-2-oxoethanaminium 2,2,2-trifluoroacetate], the IC50 (MCF-7 cells) was 22.6 ± 0.9 µM and the IC50 (HepG2 cells) was 11.4 ± 0.77 µM.
`Cc1cc(O)c2c(c1)C(=O)c1cc(OCCOC(=O)[C@H](N)C(C)C)cc(O)c1C2=O` [Compound 3e, (R)-1-(2-(4,5-Dihydroxy-7-methyl-9,10-dioxo-9,10-dihydroanthracen-2-yloxy)ethoxy)-3-methyl-1-oxobutan-2-aminium 2,2,2-trifluoroacetate] gave an IC50 (MCF-7 cells) of 14.2 ± 0.23 µM and an IC50 (HepG2 cells) of 14.4 ± 1.09 µM.
Work on `Cc1cc(O)c2c(c1)C(=O)c1cc(OCCCCCOC(=O)[C@@H](C)N)cc(O)c1C2=O` [Compound 7e, (R)-1-(5-(4,5-Dihydroxy-7-methyl-9,10-dioxo-9,10-dihydroanthracen-2-yloxy)pentyloxy)-1-oxopropan-2-aminium 2,2,2-trifluoroacetate] yielded an IC50 (MCF-7 cells) of 9.11 ± 0.67 µM, an IC50 (L02 cells) of 27.7 ± 0.54 µM and an IC50 (HepG2 cells) of 8.58 ± 0.77 µM.
With `Cc1cc(O)c2c(c1)C(=O)c1cc(OCCOCCOCCOC(=O)[C@@H](C)N)cc(O)c1C2=O` [Compound 7i, (R)-1-(2-(2-(2-(4,5-Dihydroxy-7-methyl-9,10-dioxo-9,10-dihydroanthracen-2-yloxy)ethoxy)ethoxy)ethoxy)-1-oxopropan-2-aminium 2,2,2-trifluoroacetate] the IC50 (MCF-7 cells) was 20.8 ± 1.87 µM and the IC50 (HepG2 cells) was 28.7 ± 0.87 µM.
`Cc1cc(O)c2c(c1)C(=O)c1cc(OCCOC(=O)C3(N)CCC3)cc(O)c1C2=O` [Compound 3l, 1-((2-(4,5-Dihydroxy-7-methyl-9,10-dioxo-9,10-dihydroanthracen-2-yloxy)ethoxy)carbonyl)cyclobutan-aminium 2,2,2-trifluoroacetate] gave an IC50 (MCF-7 cells) greater than 100 µM and an IC50 (HepG2 cells) of 67.49 ± 0.56 µM.
`Cc1cc(O)c2c(c1)C(=O)c1cc(OCCOC(=O)[C@@H](C)N)cc(O)c1C2=O` [Compound 3b, (R)-1-(2-(4,5-Dihydroxy-7-methyl-9,10-dioxo-9,10-dihydroanthracen-2-yloxy)ethoxy)-1-oxopropan-2-aminium 2,2,2-trifluoroacetate] showed an IC50 (MCF-7 cells) of 8.99 ± 0.64 µM, an IC50 (L02 cells) of 33.6 ± 0.36 µM and an IC50 (HepG2 cells) of 8.22 ± 0.13 µM.
With `Cc1cc(O)c2c(c1)C(=O)c1cc(OCCOC(=O)[C@@H](N)Cc3ccccc3)cc(O)c1C2=O` [Compound 3x, (S)-1-(2-(4,5-Dihydroxy-7-methyl-9,10-dioxo-9,10-dihydroanthracen-2-yloxy)ethoxy)-1-oxo-3-phenyl-propan-2-aminium 2,2,2-trifluoroacetate] the IC50 (MCF-7 cells) was 18.1 ± 0.32 µM and the IC50 (HepG2 cells) was 16.2 ± 0.36 µM.
